In patent publication US20070276011A1, “Plasminogen Activator Inhibitor-1 Inhibitor” (priority 2003, published 2007):

The compounds below were run against recombinant human PAI-1 (Homo sapiens, UniProt P05121) (assay: PAI-1 inhibitory activity, Test Method A (tPA fluorogenic substrate, Tris buffer pH8.0, 37 C)). Conditions: 25 μM test compound; Test Method A.
Chain of recombinant human PAI-1 (P05121 24-402): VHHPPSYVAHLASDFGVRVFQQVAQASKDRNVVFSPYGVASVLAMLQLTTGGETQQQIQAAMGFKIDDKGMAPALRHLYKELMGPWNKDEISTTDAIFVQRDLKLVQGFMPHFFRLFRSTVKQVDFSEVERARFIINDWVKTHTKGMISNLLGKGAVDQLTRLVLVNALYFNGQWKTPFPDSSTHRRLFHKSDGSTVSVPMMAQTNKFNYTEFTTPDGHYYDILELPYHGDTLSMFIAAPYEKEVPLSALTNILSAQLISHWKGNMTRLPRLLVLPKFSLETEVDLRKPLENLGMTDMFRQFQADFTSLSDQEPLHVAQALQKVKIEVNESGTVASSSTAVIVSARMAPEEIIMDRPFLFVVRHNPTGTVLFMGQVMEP
Format: biochemical
`COc1ccc(NC(=O)c2cc(C=C3SC(=O)N(Cc4cc(F)cc(F)c4)C3=O)ccc2O)cc1OC` [compound 385, 5-[4-Hydroxy-3-(3,4-dimethoxyphenylcarbamoyl)benzylidene]-3-(3,5-difluorobenzyl)thiazolidine-2,4-dione] was tested, and the “Inhibitory Ratio at 25 μM (%)” value was over 99%.
With `COc1ccc(NC(=O)c2cc(C=C3SC(=O)N(Cc4ccc(-c5ccccc5)cc4)C3=O)ccc2O)cc1OC` [compound 371, 5-[4-Hydroxy-3-(3,4-dimethoxyphenylcarbamoyl)benzylidene]-3-(4-phenylbenzyl)thiazolidine-2,4-dione] the “Inhibitory Ratio at 25 μM (%)” value was over 99%.
In the case of `O=C(Nc1ccc(O)cc1)c1cc(C=C2SC(=O)N(Cc3ccc(Cl)c(Cl)c3)C2=O)ccc1O` [compound 354], the “Inhibitory Ratio at 25 μM (%)” value is reported as 72%.
With `COC(=O)c1cccc(NC(=O)c2cc(C=C3SC(=O)N(Cc4ccc(Cl)c(Cl)c4)C3=O)cc(O)c2O)c1` [compound 470] the “Inhibitory Ratio at 25 μM (%)” value was 95%.
`COc1ccc(NC(=O)c2cc(C=C3SC(=O)N(Cc4cc(Cl)cc(Cl)c4)C3=O)ccc2O)cc1OC` [compound 395, 5-[4-Hydroxy-3-(3,4-dimethoxyphenylcarbamoyl)benzylidene]-3-(3,5-dichlorobenzyl)thiazolidine-2,4-dione] was tested, and the “Inhibitory Ratio at 25 μM (%)” value was 88%.
For `N=C(N)NCCC[C@H](N)C(=O)O.N=C(N)NCCC[C@H](N)C(=O)O.O=C1SC(=Cc2ccc(O)c(O)c2)C(=O)N1Cc1ccc(Cl)cc1Cl` [compound 335, di(L-(+)-arginine) salt of 5-(3,4-dihydroxybenzylidene)-3-(2,4-dichlorobenzyl)thiazolidine-2,4-dione], the “Inhibitory Ratio at 25 μM (%)” value was over 99%.
In the case of `COc1ccc(NC(=O)c2cc(C=C3SC(=O)N(Cc4ccc([N+](=O)[O-])cc4)C3=O)ccc2O)cc1OC` [compound 376, 5-[4-Hydroxy-3-(3,4-dimethoxyphenylcarbamoyl)benzylidene]-3-(4-nitrobenzyl)thiazolidine-2,4-dione], the “Inhibitory Ratio at 25 μM (%)” value is reported as 84%.
For `CCOC1=NN(c2ccc([N+](=O)[O-])cc2)C(=O)C1=Cc1cc(C(C)(C)C)ccc1O` [compound 548], the “Inhibitory Ratio at 25 μM (%)” value was 32%.
`COc1ccc(Oc2ccc(C(F)(F)F)cc2NC(=O)c2cc(C=C3SC(=O)N(Cc4cccc(Oc5ccccc5)c4)C3=O)ccc2O)cc1` [compound 421, 5-(4-hydroxy-3-{[2-(4-methoxyphenoxy)-5-(trifluoromethyl)-phenyl]carbamoyl}benzylidene)-3-(3-phenoxybenzyl)thiazolidine-2,4-dione] was tested, and the “Inhibitory Ratio at 25 μM (%)” value was over 99%.
`COc1ccc(C)c(NC(=O)c2cc(C=C3SC(=O)N(Cc4ccc(Cl)c(Cl)c4)C3=O)ccc2O)c1` [compound 450, 5-[4-hydroxy-3-(2-methyl-5-methoxyphenylcarbamoyl)-benzylidene]-3-(3,4-dichlorobenzyl)thiazolidine-2,4-dione] was tested, and the “Inhibitory Ratio at 25 μM (%)” value was 87%.
In the case of `O=C(O)c1cccc(NC(=O)c2cc(C=C3SC(=O)N(Cc4ccc(Cl)c(Cl)c4)C3=O)ccc2O)c1` [compound 420], the “Inhibitory Ratio at 25 μM (%)” value is reported as 85%.
`O=C1SC(=Cc2ccc(F)c(O)c2)C(=O)N1Cc1ccc(Cl)c(Cl)c1` [compound 326] was tested, and the “Inhibitory Ratio at 25 μM (%)” value was 66%.
With `O=C(Nc1cccc(OC(F)(F)F)c1)c1cc(C=C2SC(=O)N(Cc3ccc(Cl)c(Cl)c3)C2=O)ccc1O` [compound 414] the “Inhibitory Ratio at 25 μM (%)” value was 91%.
In the case of `COc1cc(C=C2C(=O)N(c3cc(Cl)cc(Cl)c3)N=C2C(C)C)cc(Br)c1O` [compound 539, 4-(3-Methoxy-4-hydroxy-5-bromobenzylidene)-1-(3,5-dichlorophenyl)-3-isopropyl-2-pyrazolin-5-one], the “Inhibitory Ratio at 25 μM (%)” value is reported as 80%.
`O=C1SC(=Cc2cc([O-])c([O-])c(O)c2)C(=O)N1Cc1ccc(Cl)c(Cl)c1.[Na+].[Na+]` [compound 338] was tested, and the “Inhibitory Ratio at 25 μM (%)” value was 85%.
For `CC(C)C1=NN(Cc2ccc(Cl)c(Cl)c2)C(=O)C1=Cc1cc(O)c(O)cc1O.N=C(N)NCCC[C@H](N)C(=O)O.N=C(N)NCCC[C@H](N)C(=O)O.N=C(N)NCCC[C@H](N)C(=O)O` [compound 553, tri(L-(+)-arginine) salt of 4-(2,4,5-trihydroxybenzylidene)-1-(3,4-dichlorobenzyl)-3-isopropyl-2-pyrazolin-5-one], the “Inhibitory Ratio at 25 μM (%)” value was over 99%.
For `O=C1SC(=Cc2ccc(O)c(F)c2)C(=O)N1Cc1ccc(Cl)c(Cl)c1` [compound 332], the “Inhibitory Ratio at 25 μM (%)” value was over 99%.
In the case of `O=C(Nc1cc(C(F)(F)F)ccc1F)c1cc(C=C2SC(=O)N(Cc3ccc(Cl)c(Cl)c3)C2=O)ccc1O` [compound 442], the “Inhibitory Ratio at 25 μM (%)” value is reported as 58%.
For `CC1=NN(c2ccc([N+](=O)[O-])cc2)C(=O)C1=Cc1cc(C=Cc2ccccc2)ccc1O` [compound 533], the “Inhibitory Ratio at 25 μM (%)” value was over 99%.
`O=C1SC(=Cc2cn(Cc3ccc(OCc4ccccc4)c(OCc4ccccc4)c3)c3ccccc23)C(=O)N1Cc1ccc(Cl)c(Cl)c1` [compound 411, 5-[1-(3,4-dibenzyloxybenzyl)indol-3-ylmethylene]-3-(3,4-dichlorobenzyl)thiazolidine-2,4-dione] was tested, and the “Inhibitory Ratio at 25 μM (%)” value was 95%.
For `COC(=O)c1c(O)cc(C=C2SC(=O)N(Cc3ccc(Cl)cc3Cl)C2=O)cc1O` [compound 342, 5-[3,5-Dihydroxy-4-(methoxycarbonyl)benzylidene]-3-(2,4-dichlorobenzyl)thiazolidine-2,4-dione], the “Inhibitory Ratio at 25 μM (%)” value was 37%.
With `CC(C)C1=NN(c2cc(Cl)cc(Cl)c2)C(=O)C1=Cc1cc(Br)cc(O)c1O` [compound 529] the “Inhibitory Ratio at 25 μM (%)” value was over 99%.
In the case of `CC(C)C1=NN(c2cc(Cl)cc(Cl)c2)C(=O)C1=Cc1cc(O)c(O)c(Br)c1` [compound 540], the “Inhibitory Ratio at 25 μM (%)” value is reported as over 99%.
For `CCOC(=O)CCC1=NN(c2ccccc2)C(=O)C1=Cc1cc(O)c(O)cc1O` [compound 514], the “Inhibitory Ratio at 25 μM (%)” value was 56%.
With `COc1ccc(OC)c(NC(=O)c2cc(C=C3SC(=O)N(Cc4ccc(Cl)c(Cl)c4)C3=O)ccc2O)c1` [compound 471] the “Inhibitory Ratio at 25 μM (%)” value was 96%.
`O=C(CCc1ccccc1)Nc1ccc(CN2C(=O)SC(=Cc3cccc(O)c3O)C2=O)cc1` [compound 314, 5-(2,3-Dihydroxybenzylidene)-3-[4-(3-phenylpropionylamino)benzyl]-thiazolidine-2,4-dione] was tested, and the “Inhibitory Ratio at 25 μM (%)” value was over 99%.

Same assay, conditions: test compound 25 μM; Test Method A
For `CC1=NN(c2cc(Cl)cc(Cl)c2)C(=O)C1=Cc1ccc(O)c(O)c1` [compound 112, 4-(3,4-Dihydroxybenzylidene)-1-(3,5-dichlorophenyl)-3-methyl-2-pyrazolin-5-one], the “Inhibitory Ratio at 25 μM (%)” value was over 99%.
For `Cc1cc(C)cc(CN2C(=O)SC(=Cc3cccc(O)c3O)C2=O)c1` [compound 26, 5-(2,3-Dihydroxybenzylidene)-3-(3,5-dimethylbenzyl)thiazolidine-2,4-dione], the “Inhibitory Ratio at 25 μM (%)” value was over 99%.
`CCOc1cc(C=C2C(=O)N(c3cccc(C(F)(F)F)c3)N=C2C)ccc1OCC(=O)O` [compound 159] was tested, and the “Inhibitory Ratio at 25 μM (%)” value was 32%.
With `O=C1SC(=Cc2ccc(O)c(O)c2)C(=O)N1Cc1cccc(C(F)(F)F)c1` [compound 42] the “Inhibitory Ratio at 25 μM (%)” value was over 99%.
For `O=C1SC(=Cc2cccc(O)c2O)C(=O)N1Cc1cc(C(F)(F)F)cc(C(F)(F)F)c1` [compound 70], the “Inhibitory Ratio at 25 μM (%)” value was over 99%.
`O=C1C(=Cc2cc(Br)cc(Br)c2O)C(O)=NN1c1ccccc1` [compound 101] was tested, and the “Inhibitory Ratio at 25 μM (%)” value was 28%.
`CC1=NN(c2cccc(C(=O)O)c2)C(=O)C1=Cc1ccccc1` [compound 172] was tested, and the “Inhibitory Ratio at 25 μM (%)” value was 32%.
With `O=C1SC(=Cc2ccc(O)c(O)c2)C(=O)N1Cc1ccc([N+](=O)[O-])cc1` [compound 50, 5-(3,4-Dihydroxybenzylidene)-3-(4-nitrobenzyl)thiazolidine-2,4-dione] the “Inhibitory Ratio at 25 μM (%)” value was 82%.
With `O=C(O)c1cccc(N2N=C(c3ccccc3)C(=Cc3ccc(-c4cc(C(F)(F)F)cc(C(F)(F)F)c4)o3)C2=O)c1` [compound 217] the “Inhibitory Ratio at 25 μM (%)” value was over 99%.
`COC(=O)c1cccc(-c2ccc(C=C3C(=O)N(c4ccc(F)cc4)N=C3O)o2)c1` [compound 160] was tested, and the “Inhibitory Ratio at 25 μM (%)” value was 50%.
For `CC(C)C1=NN(c2ccc(Cl)c(Cl)c2)C(=O)C1=Cc1ccc(O)c(O)c1` [compound 140], the “Inhibitory Ratio at 25 μM (%)” value was over 99%.
In the case of `O=C(Nc1ccc(CN2C(=O)SC(=Cc3ccc(O)c(O)c3)C2=O)cc1)c1ccccc1` [compound 83], the “Inhibitory Ratio at 25 μM (%)” value is reported as 60%.
In the case of `Cc1cccc(C=C2SC(=O)N(Cc3cc(C(F)(F)F)cc(C(F)(F)F)c3)C2=O)c1O` [compound 6], the “Inhibitory Ratio at 25 μM (%)” value is reported as 46%.
For `O=C1C(=Cc2ccc(O)c(O)c2)C(C(F)(F)F)=NN1c1cc(Cl)cc(Cl)c1` [compound 147, 4-(3,4-Dihydroxybenzylidene)-1-(3,5-dichlorophenyl)*3-trifluoromethyl-2-pyrazolin-5-one], the “Inhibitory Ratio at 25 μM (%)” value was over 99%.
With `O=C(O)c1cccc(N2N=C(c3ccccc3)C(=Cc3ccc(-c4cc(Cl)cc(Cl)c4)o3)C2=O)c1` [compound 216] the “Inhibitory Ratio at 25 μM (%)” value was 94%.
`CC(C)C1=NN(c2cc(Cl)cc(Cl)c2)C(=O)C1=Cc1cccc(O)c1O` [compound 104, 4-(2,3-Dihydroxybenzylidene)-1-(3,5-dichlorophenyl)-3-isopropyl-2-pyrazolin-5-one] was tested, and the “Inhibitory Ratio at 25 μM (%)” value was 92%.
With `COc1cc(CN2C(=O)SC(=Cc3cccc(O)c3O)C2=O)cc(OC)c1` [compound 3, 5-(2,3-Dihydroxybenzylidene)-3-(3,5-dimethoxybenzyl)thiazolidine-2,4-dione] the “Inhibitory Ratio at 25 μM (%)” value was 71%.
With `CC(C)C1=NN(c2cc(Cl)cc(Cl)c2)C(=O)C1=Cc1ccc(O)c(O)c1O` [compound 142] the “Inhibitory Ratio at 25 μM (%)” value was over 99%.
`CCOC1=NN(c2ccc([N+](=O)[O-])cc2)C(=O)C1=Cc1cc(O)c(O)cc1O` [compound 223] was tested, and the “Inhibitory Ratio at 25 μM (%)” value was 88%.
